Source: patent publication US7112680B2, “Heterocyclic hydrazones for use as anti-cancer agents” (Austria Wirtschaftsservice Gesellschaft MIT Beschrankter …, priority 2000, dated 2006)
pIC50: −log10 of the molar value.

What was measured:
[1] = system: Burkitt's lymphoma (CA 46, ATCC No. CRL 1648); experiment: Inhibition of tumor cell growth, MTT-assay, Burkitt's lymphoma; assay type: cell-based, human; settings: Table 2, 72 hours, read-out: IC50 Burkitts
How it was run: (§1)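 Cells seeded at 3,000–10,000 (or ~10,000) per well in 96-well plates; compounds dissolved in DMSO. After treatment, samples fixed, washed and absorbance read on a microplate reader (SRB or MTT read-out according to the assay).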

[2] = system: up to 12 different tumor cells in permeable hoses; experiment: Hollow fibre assay; assay type: in vivo; settings: mice implanted with tumor cells in permeable hoses
Description: Substances Ib-11 and Ib-24 were also tested in the so-called hollow fibre assay for their anti-tumor activity. For this purpose, mice were implanted with up to 12 different tumor cells in permeable hoses and treated with the compounds according to the invention.

[3] = system: HeLa (epitheloid cervix carcinoma); experiment: Inhibition of tumor cell growth, SRB-assay, HeLa; assay type: cell-based, human; settings: Table 2, 72 hours, read-out: IC50 HeLa (converted)
[4] = system: HT-29 (colon adenocarcinoma); experiment: Inhibition of tumor cell growth, SRB-assay, HT-29; assay type: cell-based, human; settings: Table 2, 72 hours, read-out: IC50 HT-29 (converted)
How it was run: as §1

[5] = system: CCRF-CEM (acute lymphoblastic leukemia); experiment: Inhibition of tumor cell growth, MTT-assay, CCRF-CEM; assay type: cell-based, human; settings: Table 2, 72 hours
[6] = system: MEXF 276L (melanoma); experiment: Inhibition of tumor cell growth, SRB-assay, MEXF 276L; assay type: cell-based, human; settings: Table 2, 72 hours, read-out: IC50 MEXF276L
Description: The KB cell lines were grown in Dulbecco's modified Eagle's medium (4,5 g glucose/l). To the cultures of KB-C1 cells 1 μg of colchicine/ml, and to the hydroxyurea-resistant KB-HU cells 1 mM hydroxyurea was added every other week. […] 3,000 - 10,000 cells in 200 μl medium were seeded per well into 96-well plates. […] Approximately 10,000 cells per 100 μl were seeded in 96-well plates. […] The substances were dissolved in dimethylsulfoxide (DMSO). […] Subsequently, the samples were fixed, washed, and the absorption was determined by a microplate reader.

pIC50 [1] | IC50 [3] | IC50 [4] | pIC50 [5] | pIC50 [6] | Structure (SMILES) | anti-tumor activity in hollow fibre assay [2]
7.60 | 63 nM | 230 nM | 6.89 | 6.19 | CC(=NNc1nc2ccccc2o1)c1cc2ccccc2cn1 [Ib-24] | exhibit anti-tumor activity
5.88 | 1710 nM | 710 nM | 6.05 | 5.67 | CC(=NNc1nc2ccccc2[nH]1)c1cnccn1 [Ib-11] | exhibit anti-tumor activity
